# Laboratory results: patent US5536623A, “Method of producing highly water-soluble cyclodextrin complex” (Takeda Chemical Industries, Ltd., priority 1992, dated 1996)
# Read-outs that look alike come from different tables or passages of the source.
# Key:
# [1] = assay type: physicochemical; details: water
# Description: (§1) Column: ODS, YMC-Pack A-312 (Yamamura Chemical Laboratories)
# (§2) Mobil phase: water-acetonitrile (1:1 v/v)
# (§3) Detector: Ultra violet detector (wavelength: 210 nm)
# To a 5 ml aqueous solution containing 500 mg of glucosyl-β-cyclodextrin (hereinafter abbreviated G1[CyD) was added 250 mg of TNP-470, followed by stirring at 25° C. for 8 hours to obtain a solution. The resulting aqueous solution was filtered and lyophilized in accordance with the standard method to yield a powder. To the entire amount of the powder thus obtained, 5 ml of water was added to yield a uniform aqueous solution. Separately, in accordance With the conventional method, 100 mg of G1βCyD was dissolved in 5 ml of water; 250 mg of TNP-470 was added to this solution, followed by stirring at 25° C. for 8 hours. Then, the solution was filtered. The above uniform solution and the filtered solution were assayed for TNP-470 by HPLC method as described in Comparative Example 1. Also, the saturation solubility of TNP-470 alone was determined by HPLC.
# [2] = assay type: physicochemical; details: water; remark: listed apart in the source
# Description: To a 5 ml aqueous solution containing 1000 mg of maltosyl-β-cyclodextrin (hereinafter abbreviated G2βCyD) was added 250 mg of 6-O-(N-chloroacetylcarbamoyl) fumagillol (hereinafter abbreviated TNP-470), followed by stirring at 25° C. for 8 hours to obtain a solution. The undissolved portion of TNP-470 was filtered out, and the filtrate was placed in a vial and lyophilized in accordance with a conventional method to yield a powder. To the entire amount of the powder thus obtained, 5 ml of water was added to yield a uniform aqueous solution. Separately, in accordance with the conventional method, 110 mg of G2βCyD was dissolved in 5 ml of water; 250 mg of TNP-470 was added to this solution, followed by stirring at 25° C. for 8 hours. Then, the solution was filtered. The above uniform solution and the filtered solution were assayed for TNP-470 by high performance liquid chromatography (HPLC). Also, the saturation solubility of TNP-470 alone was determined by HPLC.
# as §1, §2, §3
# [3] = Storage stability at 40° C., TNP-470 quantified by HPLC (Example 6); assay type: physicochemical; details: powder, 730 h
# Description: as §1, §2, §3
# To a 5 ml aqueous solution containing 726 mg of maltosyl-β-cyclodextrin was added 100 mg of TNP-470, followed by stirring at 25° C. for 180 minutes to yield a solution. This aqueous solution was filtered, and 5 ml of the filtrate was placed in a vial and lyophilized to yield a powder. The stability of this powder and that of TNP-470 alone were compared after storage at 40° C. for i month. TNP-470 was quantified by HPLC.
smiles,measurement,setting,value
"CO[C@@H]1[C@H](OC(=O)NC(=O)CCl)CC[C@]2(CO2)[C@H]1[C@@]1(C)O[C@@H]1CC=C(C)C [TNP-470, 6-O-(N-chloroacetylcarbamoyl) fumagillol]",Comparison of Solubility (TNP-470),[1],1900 µg/mL
same,Comparison of Solubility (TNP-470),[2],1900 µg/mL
same,"Stability, Percent residence (TNP-470)",[3],68%
